Data as given in patent publication US11339161B2, “Triazolo pyridines as modulators of gamma-secretase” (Boehringer Ingelheim International GmbH, priority 2017, dated 2022).

Assays:
[1] = test system: Aβ42 production; assay: Inhibition of Aβ42 production in H4 neuroglioma cells stably expressing human APP695 (MSD electrochemiluminescence); assay type: cell-based; settings: H4 neuroglioma cells expressing human APP695, 22 hours incubation; Table 4a
Protocol: (§1) Cells were plated out to near confluency. The compounds to be tested were received as 10 mM stocks in 100% DMSO. A dilution series was initially generated in 100% DMSO and then diluted 200-fold in cell culture media such that the tested concentration range was 30 μM to 0.1 nM and the final DMSO concentration was 0.5%. The diluted compounds were incubated with the cells for 22 hours in an incubator at 37° C. and 5% CO2. Aβ42 levels were measured post-incubation from the supernatant of the cells using an Aβ42 specific electrochemiluminescence assay provided by Meso Scale Discovery (Catalog #L21CA-1). The measurement of Aβ42 levels were performed according to the manufacturer's protocol.

[2] = test system: Aβ total; assay: Aβ total levels in H4 neuroglioma cells stably expressing human APP695 (MSD electrochemiluminescence); assay type: cell-based; settings: selectivity ratio vs. Aβtotal, Table 4a
Protocol: as §1
Aβ total levels were likewise determined using a specific electrochemiluminescence assay provided by Meso Scale Discovery (Catalog #L21ZA-1) according to the manufacturer's protocol.

[3] = molecular target: ABL1 (Homo sapiens, UniProt P00519); settings: Z'-Lyte substrate Tyr 02, ATP bin 10 μM (ATP Km app 12 μM), read-out: IC50 of known inhibitor (inhibitor validation); cited from earlier work
[4] = molecular target: CSF1R (FMS) (Homo sapiens, UniProt P07333); settings: substrate Tyr 01, ATP bin 500 μM (ATP Km app 450 μM), read-out: IC50 of known inhibitor (inhibitor validation); cited from earlier work
[5] = molecular target: LYN B (Homo sapiens, UniProt P07948); settings: substrate Tyr 02, ATP bin 25 μM (ATP Km app 25 μM), read-out: IC50 of known inhibitor (inhibitor validation); cited from earlier work
Sequence of LYN B (P07948 1-491 isoform P07948-2): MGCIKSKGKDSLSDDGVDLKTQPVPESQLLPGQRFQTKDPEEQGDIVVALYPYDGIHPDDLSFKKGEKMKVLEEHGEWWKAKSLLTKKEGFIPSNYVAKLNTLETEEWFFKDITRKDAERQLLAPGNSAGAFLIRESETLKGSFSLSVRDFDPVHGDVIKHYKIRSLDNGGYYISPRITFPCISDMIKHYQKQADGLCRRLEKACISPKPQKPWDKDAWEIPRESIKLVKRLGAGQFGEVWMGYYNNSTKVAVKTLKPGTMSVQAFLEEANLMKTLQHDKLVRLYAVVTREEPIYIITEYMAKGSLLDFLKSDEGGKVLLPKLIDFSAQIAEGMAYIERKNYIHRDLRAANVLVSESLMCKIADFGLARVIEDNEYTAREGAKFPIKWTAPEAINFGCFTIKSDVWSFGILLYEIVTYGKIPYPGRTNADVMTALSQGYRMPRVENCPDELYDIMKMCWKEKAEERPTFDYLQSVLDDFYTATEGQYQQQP

Sequence of ABL1 (P00519 whole entry): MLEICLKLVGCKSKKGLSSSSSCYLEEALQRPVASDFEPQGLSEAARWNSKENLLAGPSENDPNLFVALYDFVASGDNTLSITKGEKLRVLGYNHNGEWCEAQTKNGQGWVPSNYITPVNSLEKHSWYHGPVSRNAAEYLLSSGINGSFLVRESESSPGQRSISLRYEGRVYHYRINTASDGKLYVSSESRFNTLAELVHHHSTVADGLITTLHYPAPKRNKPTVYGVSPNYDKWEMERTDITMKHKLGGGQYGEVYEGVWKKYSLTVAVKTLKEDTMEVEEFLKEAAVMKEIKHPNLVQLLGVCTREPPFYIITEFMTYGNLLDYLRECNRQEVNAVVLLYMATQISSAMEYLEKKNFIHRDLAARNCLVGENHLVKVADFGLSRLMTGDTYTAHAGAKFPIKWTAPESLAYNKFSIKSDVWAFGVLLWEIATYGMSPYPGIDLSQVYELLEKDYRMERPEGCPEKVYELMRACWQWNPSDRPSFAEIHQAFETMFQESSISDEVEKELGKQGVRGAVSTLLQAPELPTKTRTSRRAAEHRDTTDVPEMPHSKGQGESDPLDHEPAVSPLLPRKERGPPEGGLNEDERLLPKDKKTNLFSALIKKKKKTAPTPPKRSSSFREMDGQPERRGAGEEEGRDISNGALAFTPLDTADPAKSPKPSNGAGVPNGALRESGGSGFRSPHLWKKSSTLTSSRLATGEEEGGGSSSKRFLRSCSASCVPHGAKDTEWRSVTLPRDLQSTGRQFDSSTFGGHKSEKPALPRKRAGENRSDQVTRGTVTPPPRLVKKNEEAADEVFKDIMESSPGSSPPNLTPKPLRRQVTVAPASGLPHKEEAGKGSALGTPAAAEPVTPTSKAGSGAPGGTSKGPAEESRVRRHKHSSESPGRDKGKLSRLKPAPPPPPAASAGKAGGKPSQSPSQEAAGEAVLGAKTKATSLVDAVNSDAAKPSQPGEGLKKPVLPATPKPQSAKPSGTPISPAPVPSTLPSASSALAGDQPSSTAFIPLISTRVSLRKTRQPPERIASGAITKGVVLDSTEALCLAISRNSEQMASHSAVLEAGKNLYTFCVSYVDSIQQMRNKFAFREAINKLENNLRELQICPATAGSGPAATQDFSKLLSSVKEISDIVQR
Sequence of CSF1R (FMS) (P07333 20-972): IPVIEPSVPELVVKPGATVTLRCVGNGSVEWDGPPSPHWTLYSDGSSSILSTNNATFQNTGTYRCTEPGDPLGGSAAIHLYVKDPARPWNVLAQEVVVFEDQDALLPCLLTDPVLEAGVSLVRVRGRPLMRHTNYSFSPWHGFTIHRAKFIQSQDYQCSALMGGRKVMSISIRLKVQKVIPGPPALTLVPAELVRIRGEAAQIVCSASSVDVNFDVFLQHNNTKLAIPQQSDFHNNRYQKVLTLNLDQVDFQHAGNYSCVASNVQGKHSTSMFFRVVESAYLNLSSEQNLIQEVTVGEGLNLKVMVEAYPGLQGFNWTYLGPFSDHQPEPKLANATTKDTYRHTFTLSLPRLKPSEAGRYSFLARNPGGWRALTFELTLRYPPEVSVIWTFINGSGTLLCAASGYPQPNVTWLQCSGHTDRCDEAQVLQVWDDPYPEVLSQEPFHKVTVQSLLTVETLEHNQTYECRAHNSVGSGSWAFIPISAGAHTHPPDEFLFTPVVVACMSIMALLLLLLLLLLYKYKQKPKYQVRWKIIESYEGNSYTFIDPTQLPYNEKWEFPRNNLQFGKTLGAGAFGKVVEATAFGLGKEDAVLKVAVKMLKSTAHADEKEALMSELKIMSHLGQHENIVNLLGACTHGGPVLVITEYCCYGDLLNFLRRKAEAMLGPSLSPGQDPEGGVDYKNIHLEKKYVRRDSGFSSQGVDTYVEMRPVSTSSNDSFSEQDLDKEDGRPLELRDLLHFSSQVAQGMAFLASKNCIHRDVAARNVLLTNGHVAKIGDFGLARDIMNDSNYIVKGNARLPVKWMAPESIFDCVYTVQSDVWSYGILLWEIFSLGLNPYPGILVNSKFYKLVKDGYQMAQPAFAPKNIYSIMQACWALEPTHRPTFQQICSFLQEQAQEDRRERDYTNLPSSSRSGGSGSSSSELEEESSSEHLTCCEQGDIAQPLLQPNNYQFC

Row | SMILES | IC50 [1] [nM] | Ratio AβTotal IC50/Aβ42 IC50 [2] | IC50 [3] [nM] | IC50 [4] [nM] | IC50 [5] [nM]
1 | CCc1nnn2c1CCC(Nc1nc3c(-c4ccc(F)cc4C)cccn3n1)C2 (stereo not drawn) [Example 52, (3-Ethyl-4,5,6,7-tetrahydro-[1,2,3]triazolo[1,5-a]pyridine-6-yl)-[8-(4-fluoro-2-methyl-phenyl)-[1,2,4]triazolo[1,5-a]pyridine-2-yl]-amine] | 740 | 2 |  |  | 
2 | CCn1ncc2c1CCC(Nc1nc3c(-c4cncc(C)c4)cccn3n1)C2 (stereo not drawn) [Example 66, (1-Ethyl-4,5,6,7-tetrahydro-1H-indazol-5-yl)-[8-(5-methyl-pyridin-3-yl)-[1,2,4]triazolo[1,5-a]pyridine-2-yl]-amine] | 200 | 154 |  |  | 
3 | Cc1cc(F)ccc1-c1cccn2nc(NC3CCc4[nH]ncc4C3)nc12 (stereo not drawn) [Example 41, [8-(4-Fluoro-2-methyl-phenyl)-[1,2,4]triazolo[1,5-a]pyridine-2-yl]-(4,5,6,7-tetrahydro-1H-indazol-5-yl)-amine] | 4570 | 1 |  |  | 
4 | CCn1ncc2c1CCC(Nc1nc3c(-c4cccnc4C)cccn3n1)C2 (stereo not drawn) [Example 65, (1-Ethyl-4,5,6,7-tetrahydro-1H-indazol-5-yl)-[8-(2-methyl-pyridin-3-yl)-[1,2,4]triazolo[1,5-a]pyridine-2-yl]-amine] | 680 | 44 |  |  | 
5 | COc1cc2ncnc(Nc3cccc(Cl)c3)c2cc1OC [Tyrphostin AG1478] |  |  | 421 | 4420 | 242
6 | CCn1ncc2c1CCC(Nc1nc3c(-c4ccc(F)c(Cl)c4)cccn3n1)C2 (stereo not drawn) [Example 61, [8-(3-Chloro-4-fluoro-phenyl)-[1,2,4]triazolo[1,5-a]pyridine-2-yl]-(1-ethyl-4,5,6,7-tetrahydro-1H-indazol-5-yl)-amine] | 20 | 152 |  |  | 
7 | CCn1ncc2c1CCC(Nc1nc3c(-c4ccccc4Cl)cccn3n1)C2 (stereo not drawn) [Example 58, [8-(2-Chloro-phenyl)-[1,2,4]triazolo[1,5-a]pyridine-2-yl]-(1-ethyl-4,5,6,7-tetrahydro-1H-indazol-5-yl)-amine] | 60 | 34 |  |  | 
8 | CCOC1Cc2c(cnn2CC)CC1Nc1nc2c(-c3cc(F)c(F)c(F)c3)cccn2n1 (stereo not drawn) [Example 50, (6-Ethoxy-1-ethyl-4,5,6,7-tetrahydro-1H-indazol-5-yl)-[8-(3,4,5-trifluoro-phenyl)-[1,2,4]triazolo[1,5-a]pyridine-2-yl]-amine] | 21700 | 1 |  |  | 
9 | CCn1ncc2c1CCC(Nc1nc3c(-c4cnccc4C)cccn3n1)C2 (stereo not drawn) [Example 64, (1-Ethyl-4,5,6,7-tetrahydro-1H-indazol-5-yl)-[8-(4-methyl-pyridin-3-yl)-[1,2,4]triazolo[1,5-a]pyridine-2-yl]-amine] | 730 | 41 |  |  | 
10 | CCn1ncc2c1CCC(Nc1nc3c(-c4ccc(N(C)C)nc4)cccn3n1)C2 (stereo not drawn) [Example 72, [8-(6-Dimethylamino-pyridin-3-yl)-[1,2,4]triazolo[1,5-a]pyridine-2-yl]-(1-ethyl-4,5,6,7-tetrahydro-1H-indazol-5-yl)-amine] | 50 | 538 |  |  | 
11 | CCn1ncc2c1CCC(Nc1nc3c(-c4cc(F)c(F)c(F)c4)cccn3n1)C2 (stereo not drawn) [Example 62, (1-Ethyl-4,5,6,7-tetrahydro-1H-indazol-5-yl)-[8-(3,4,5-trifluoro-phenyl)-[1,2,4]triazolo[1,5-a]pyridine-2-yl]-amine] | 30 | 128 |  |  | 
12 | CCc1nnc2n1CCC(Nc1nc3c(-c4ccc(F)cc4C)cccn3n1)C2 (stereo not drawn) [Example 53, (3-Ethyl-5,6,7,8-tetrahydro-[1,2,4]triazolo[4,3-a]pyridine-7-yl)-[8-(4-fluoro-2-methyl-phenyl)-[1,2,4]triazolo[1,5-a]pyridine-2-yl]-amine] | 1390 | 1 |  |  | 
13 | CCn1ncc2c1CCC(Nc1nc3c(-c4ccc(Cl)cc4)cccn3n1)C2 (stereo not drawn) [Example 60, [8-(4-Chloro-phenyl)-[1,2,4]triazolo[1,5-a]pyridine-2-yl]-(1-ethyl-4,5,6,7-tetrahydro-1H-indazol-5-yl)-amine] | 60 | 113 |  |  | 
